The values that follow come from US20060252030A1, “Fabrication of carbohydrate chips by immobilizing unmodified carbohydrates on derivatized solid surfaces, and their uses” (priority 2005, published 2006).

Assay [1] has as its target ConA (Canavalia ensiformis, UniProt P02866). Put plainly: Carbohydrate chip incubated with FITC-ConA, fluorescence scanner. Format: binding. As to conditions: carbohydrate on aminooxy or hydrazide chip, FIG. 5(c). The procedure:
(§1) A solution (0.1 μl˜1 nl) of carbohydrates including mono-, di-, oligo- and polysaccharides in PBS buffer (pH 4.0-5.0) containing 30-50% glycerol is printed on the above-mentioned chip base by using a micropipette or microarrayer. In this process, the concentration of carbohydrates is preferably between 0.1 mM and 50 mM. After completion of printing, the chip is reacted at 40-60° C. for 8 hours or more, and then washed. Then, the chip is immersed in PBS buffer (pH 7.4) containing 0.1% Tween 20 and 1% BSA (bovine serum albumin) for 1 hour. The fabrication of carbohydrate chips is complete by washing the BSA-treated chip with buffer (pH 7.4) containing 0.1% Tween 20 three times for 15 minutes.
(§2) The fabricated carbohydrate chips are applied for studies on protein-carbohydrate interactions. For these studies, the carbohydrate chips are incubated with non-labeled or fluorophore-labeled proteins in buffer containing 0.1% Tween 20 for 1 hour. Proteins labeled by fluorescent dyes such as Cy3, Cy5 and FITC are commercially available, or can be prepared by reacting proteins with fluorescent dyes. Then, the protein-treated chips are washed with buffer containing 0.1% Tween 20 three times for 10 minutes in order to remove unbound proteins.
Carbohydrate chips are used for the rapid assessment of carbohydrate-protein interactions, which are involve in various biological processes and are of importance for the development of novel therapeutics, and for the fast diagnosis of carbohydrate-based diseases such as tumors and pathogens. For this purpose, each solution (sodium phosphate buffer containing 30% glycerol, pH 5.0) of twenty one of mono-, di-, oligo- and polysaccharides listed in Table 1 was printed on the solid support coated by aminooxy or hydrazide groups. […] According to the fluorescence intensity of the spots in chips after detecting with a fluorescence scanner, TV strongly is bound to N,N′-diacetylchitobiose (13), less strongly to GlcNAc (2) and sialyl Le^x (19), and weakly bound to GalNAc (5), LacNAc (15) and NeuNAcLacNAc (18) [see FIG. 5(a)].

Assay [2] has as its system Triticum vulgaris (Cy3-TV, also known as wheat germ agglutinin). Description: Carbohydrate chip incubated with Cy3-TV, fluorescence scanner. As to conditions: carbohydrate on aminooxy or hydrazide chip, FIG. 5(a). Format: binding. As for the experimental part:
as §1, §2
(§3) Carbohydrate chips are used for the rapid assessment of carbohydrate-protein interactions, which are involve in various biological processes and are of importance for the development of novel therapeutics, and for the fast diagnosis of carbohydrate-based diseases such as tumors and pathogens. For this purpose, each solution (sodium phosphate buffer containing 30% glycerol, pH 5.0) of twenty one of mono-, di-, oligo- and polysaccharides listed in Table 1 was printed on the solid support coated by aminooxy or hydrazide groups. The carbohydrate chips prepared from the method described in Example 3 were incubated with Cy3-TV, Cy5-AA and FITC-ConA. According to the fluorescence intensity of the spots in chips after detecting with a fluorescence scanner, TV strongly is bound to N,N′-diacetylchitobiose (13), less strongly to GlcNAc (2) and sialyl Le^x (19), and weakly bound to GalNAc (5), LacNAc (15) and NeuNAcLacNAc (18) [see FIG. 5(a)].

Assay [3] addresses T1, Aleuria aurantia (Cy5-AA) lectin (Aleuria aurantia, UniProt P18891).
T1 sequence (P18891 1-313): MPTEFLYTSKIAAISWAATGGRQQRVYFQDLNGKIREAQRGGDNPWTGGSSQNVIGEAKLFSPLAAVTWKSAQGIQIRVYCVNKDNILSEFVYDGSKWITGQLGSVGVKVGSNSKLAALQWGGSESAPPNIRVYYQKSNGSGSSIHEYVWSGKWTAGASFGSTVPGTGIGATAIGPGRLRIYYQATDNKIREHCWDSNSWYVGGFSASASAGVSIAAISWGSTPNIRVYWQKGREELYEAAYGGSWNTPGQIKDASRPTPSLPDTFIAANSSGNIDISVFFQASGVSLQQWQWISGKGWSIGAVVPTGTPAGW
Description: Carbohydrate chip incubated with Cy5-AA, fluorescence scanner. The class given is binding. To be noted: carbohydrate on aminooxy or hydrazide chip, FIG. 5(b). The procedure: as §1, §2, §3

Assay [4] has as its system anti-sialyl Le^x antibody. Description: Carbohydrate chip incubated with anti-sialyl Le^x antibody, fluorescence image. To be noted: FIG. 5(d). The class given is binding. The procedure:
as §1, §2
Sialyl Le^x is an important biological recognition marker and an interesting target for drug discovery. […]

Assay [5] relates to E. coli ORN178, expressing mannose-binding adhesin on pili. Description: Carbohydrate chip probed with E. coli pre-incubated with propidium iodide. To be noted: FIG. 5(e). As for the experimental part:
FIG. 5 is a fluorescent image of carbohydrate chips composed of 21 carbohydrates probed with (a) Cy3-TV, (b) Cy5-AA, (c) FITC-ConA, (d) anti-Sialyl Le^x antibody and (e) E. Coli pre-incubated with propidium iodide (PI).
Many bacteria including pathogens express specific carbohydrate-binding proteins on pili. The initial attachment of pathogens to host cells through specific carbohydrate-protein interactions confers pathogenic properties. For example, a mannose-binding protein of type 1 fimbriated E. coli is known to cause common urinary tract infection through its binding to glycans on host cells (Connell, H. et al., Proc. Natl. Acad. Sci. USA 1996, 93, 9827). Thus, carbohydrate chips were also used to detect pathogens for diagnosis. E. coli ORN178, expressing mannose-binding adhesin on pili, binds to spots containing mannose, mannobiose and mannan [see FIG. 5(e)].

Consider `OC[C@H]1O[C@H](O[C@H]2[C@H](O)[C@@H](O)C(O)O[C@@H]2CO)[C@H](O)[C@@H](O)[C@@H]1O` (mixture of isomers) [compound 11, Maltose], for which the “binding of ConA to immobilized carbohydrate (fluorescence intensity of the spots)” value (from here on “binding of ConA”) in assay [1] was “very weak binding”.
Take `CC(=O)N[C@H]1C(O)O[C@H](CO)[C@@H](O)[C@@H]1O` (stereo partly shown) [compound 2, N-acetylglucosamine]: the “binding of TV to immobilized carbohydrate (fluorescence intensity of the spots)” value (“binding of TV” below) in assay [2] is reported as “less strongly”.
For the molecule `CC(=O)N[C@H]1C(O)O[C@H](CO)[C@H](O)[C@@H]1O` (stereo partly shown) [compound 5, N-acetylgalactosamine], the “binding of TV” value in assay [2] was “weakly bound”.
For the molecule `C[C@H](O)[C@@H](O)[C@@H](O)[C@H](O)C=O` [compound 8, fucose], the “binding of AA to immobilized carbohydrate (fluorescence intensity of the spots)” value (“binding of AA” below) in assay [3] is given as “strongly bound”.
`CC(=O)N[C@H]1[C@H](O[C@H]2[C@H](O)[C@@H](NC(C)=O)C(O)O[C@@H]2CO)O[C@H](CO)[C@@H](O)[C@@H]1O` (stereo partly shown) [compound 13, N,N′-diacetylchitobiose]: in assay [2], the “binding of TV” value is recorded as “strongly”.
Take `C[C@@H]1O[C@@H](O[C@H]2[C@H](O[C@@H]3O[C@H](CO)[C@H](O)[C@H](O)[C@H]3O)[C@@H](CO)OC(O)[C@@H]2O)[C@@H](O)[C@H](O)[C@@H]1O` (stereo partly shown) [compound 17, Fucα1,3(Galβ1,4)Glc]: the “binding of AA” value in assay [3] is “strongly bound”.
As for `CC(=O)N[C@H]1[C@H]([C@H](O)[C@H](O)CO)O[C@@](O[C@H]2[C@@H](O)[C@@H](CO)O[C@@H](O[C@H]3[C@H](O)[C@@H](NC(C)=O)C(O)O[C@@H]3CO)[C@@H]2O)(C(=O)O)C[C@@H]1O` (stereo partly shown) [compound 18, NeuNAcα2,3Galβ1,4GlcNAc], the “binding of TV” value in assay [2] was “weakly bound”.
As to `CC(=O)N[C@H]1[C@H]([C@H](O)[C@H](O)CO)O[C@@](O[C@H]2[C@@H](O)[C@@H](CO)O[C@@H](O[C@H]3[C@H](O[C@@H]4O[C@@H](C)[C@@H](O)[C@@H](O)[C@@H]4O)[C@@H](NC(C)=O)C(O)O[C@@H]3CO)[C@@H]2O)(C(=O)O)C[C@@H]1O` (stereo partly shown) [compound 19, Sialyl Le^x], the “binding of TV” value in assay [2] is “less strongly”. In assay [4], the “recognition by anti-sialyl Le^x antibody (fluorescence image of the chip)” value is “selectively recognized”. Besides, the “binding of AA” value in assay [3] is reported as “very weakly bound”.
For the molecule `CC(=O)N[C@H]1[C@H](O[C@H]2[C@@H](O)[C@@H](CO)O[C@@H](O[C@H]3[C@H](O)[C@@H](O)C(O)O[C@@H]3CO)[C@@H]2O)O[C@H](CO)[C@@H](O[C@@H]2O[C@@H](C)[C@@H](O)[C@@H](O)[C@@H]2O)[C@@H]1O[C@@H]1O[C@H](CO)[C@H](O)[C@H](O)[C@H]1O[C@@H]1O[C@@H](C)[C@@H](O)[C@@H](O)[C@@H]1O` (stereo partly shown) [compound 20, Fucα1,2Galβ1,3(Fucα1,4)GlcNAcβ1,3Galβ1,4Glc], in assay [3], the “binding of AA” value is recorded as “strongly bound”.
Turning to Galβ1,4GlcNac [compound 15], the “binding of TV” value in assay [2] was “weakly bound”.
As for Mannan [compound 21], the “binding of E. coli ORN178 to carbohydrate spots” value in assay [5] is on record as “binds”. For the same molecule, the “binding of ConA” value in assay [1] is “strong binding”.
As to Manα1,6Man [compound 16], in assay [5], the “binding of E. coli ORN178 to carbohydrate spots” value was “binds”. Besides, in assay [1], the “binding of ConA” value is on record as “less strong binding”.
